The record followed here is publication PMC9574860, “Chemical Toolkit for PARK7: Potent, Selective, and High-Throughput” (Journal of Medicinal Chemistry, 2022).

Test [1] deals with T1, PARK7 (Homo sapiens, UniProt Q99497).
T1 sequence (Q99497 1-189): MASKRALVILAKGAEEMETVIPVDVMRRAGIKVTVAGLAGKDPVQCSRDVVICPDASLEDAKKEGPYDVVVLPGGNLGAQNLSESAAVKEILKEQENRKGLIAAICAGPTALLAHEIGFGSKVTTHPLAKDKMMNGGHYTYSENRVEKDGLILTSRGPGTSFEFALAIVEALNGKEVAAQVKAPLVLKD
The test can be described thus: FP assay with Rhodamine110 probe JYQ-107 (IC50 and hit validation). Type of test: binding. Further details: GST (N, cleaved yes); made in house; host or cells: E. coli BL21(DE3) Rosetta2. The conditions noted are these: for inhibition at 12.5 µM: read-out: FP assay %Inhibiton (12.5 µM); for inhibition at 37.5 µM: read-out: FP assay %Inhibiton (37.5 µM); for inhibition at 100 µM: read-out: FP assay %Inhibiton (100 µM). On the procedure:
The assay was performed using the conditions as described above with a reaction volume of 20 μL per well in triplicate. Stock solutions of JYQ-88 of 1 and 0.1 mM were prepared. […] The FP signal was monitored with a BMG Labtech PHERAstar plate reader (λex/em 480/520 nm) for 2 h.
The validation was performed using the conditions as described above with a reaction volume of 20 μL per well in triplicate. […] The FP signal was monitored with a BMG Labtech PHERAstar plate reader (λex/em 480/520 nm) for 2 h. The relative loss of FP signal compared with reference controls was used to calculate the remaining enzyme activity. Inhibition percentage of these 40 compounds was plotted as a heatmap using GraphPad Prism 9.0.1 software. Color gradients indicate inhibition percentage, no inhibiton (white) and full inhibition (blue).

In test [2] the target is T1, PARK7. The test can be described thus: DiFMUAc PARK7 activity assay. The format is biochemical. Further details: GST (N, cleaved yes); made in house; host or cells: E. coli BL21(DE3) Rosetta2. The conditions noted are these: for inhibition at 12.5 µM: read-out: DiFMuAc assay %Inhibiton (12.5 µM); for inhibition at 37.5 µM: read-out: DiFMuAc assay %Inhibiton (37.5 µM); for inhibition at 100 µM: read-out: DiFMuAc assay %Inhibiton (100 µM). As to the method: Compounds were transferred using a Labcyte Echo550 acoustic dispenser to obtain a 12-point serial dilution of 0.001 to 100 μM. Next, PARK7 (15 μL, final concentration of 0.1 μM) was dispensed with a Biotek MultiFlowFX liquid dispenser and incubated for 1 h, followed by dispensing the substrate DiFMUAc (5 μL, final concentration of 300 μM). The fluorescence intensity (FI) signal was monitored with a BMG Labtech PHERAstar plate reader (λex/em 350/450 nm) for 1 h.
The validation was performed in the PBS buffer with a reaction volume of 20 μL per well in triplicate. […] Next, PARK7 (15 μL, final concentration 0.1 μM) was dispensed with a Biotek MultiFlowFX liquid dispenser and incubated for 2 h, followed by dispensing the substrate DiFMUAc (5 μL, final concentration 300 μM). The FI signal was monitored with a BMG Labtech PHERAstar plate reader (λex/em 350/450 nm) for 1 h. The increase of FI signal compared with reference controls was used to calculate the remaining enzyme activity. The inhibition percentage of these 22 compounds was plotted as a heatmap using GraphPad Prism 9.0.1 software. Color gradients indicate inhibition percentage, no inhibiton (white) and full inhibition (blue).

Setting [3] is: 12.5 µM compound, PARK7 0.2 μM, 1 h preincubation, JYQ-107 20 nM.
Setting [4] is: 37.5 µM compound, PARK7 0.2 μM, 1 h preincubation, JYQ-107 20 nM.
Setting [5] is: 100 µM compound, PARK7 0.2 μM, 1 h preincubation, JYQ-107 20 nM.
[6] abbreviates: 12.5 µM compound, PARK7 0.1 μM, 2 h preincubation, DiFMUAc 300 μM.
[7] abbreviates: 37.5 µM compound, PARK7 0.1 μM, 2 h preincubation, DiFMUAc 300 μM.
The mark [8] stands for this setting: 100 µM compound, PARK7 0.1 μM, 2 h preincubation, DiFMUAc 300 μM.

For the molecule `Cc1cc(C(=O)CCl)c(C)[nH]1` [Z235333089], in test [1] (setting [3]), the inhibition at 12.5 µM amounted to 11.4%. The inhibition at 37.5 µM in test [1] (setting [4]) amounted to 16.2%. In addition, in test [1] (setting [5]), the inhibition at 100 µM stood at 54.4%.
Take `COc1ccc(NS(=O)(=O)c2ccc(S(=O)(=O)F)cc2)cn1` [Z1672273218]: in test [1], the inhibition at 12.5 µM came out at 79.5%, the inhibition at 37.5 µM was found to be 83.8% and the inhibition at 100 µM is 100%.
Regarding `NC(=O)c1csc(C(=O)CCl)c1` [Z802671642], the inhibition at 12.5 µM in test [1] (setting [3]) came out at 23.8%. Moreover, the inhibition at 37.5 µM in test [1] (setting [4]) came to 25.8%. In addition, the inhibition at 100 µM in test [1] (setting [5]) was 68%.
In the case of `COC(=O)Nc1ccc(S(=O)(=O)F)cc1[N+](=O)[O-]` [Z1741956298], the “FP assay %Inhibiton (12.5 µM)” value in test [1] (setting [3]) was determined as 72.6%. In test [1] (setting [4]), the “FP assay %Inhibiton (37.5 µM)” value was determined as 75.8%. The “FP assay %Inhibiton (100 µM)” value in test [1] (setting [5]) was 100.0%.
For the molecule `CCn1ncnc1NS(=O)(=O)c1cccc(S(=O)(=O)F)c1` [Z2509462762], in test [2], the inhibition at 12.5 µM amounted to 100%, the inhibition at 37.5 µM amounted to 100% and the inhibition at 100 µM came out at 100%. For the same molecule, in test [1], the inhibition at 12.5 µM was determined as 100%, the inhibition at 37.5 µM was 100% and the inhibition at 100 µM was 100%.
Regarding `CC(C#N)NS(=O)(=O)c1cccc(S(=O)(=O)F)c1` (stereo not drawn) [Z2509451091], the “DiFMuAc assay %Inhibiton (12.5 µM)” value in test [2] (setting [6]) was 94.5%. In test [2] (setting [7]), the “DiFMuAc assay %Inhibiton (37.5 µM)” value is given as 95.2%. Moreover, in test [2] (setting [8]), the “DiFMuAc assay %Inhibiton (100 µM)” value is 94.5%. The “FP assay %Inhibiton (12.5 µM)” value in test [1] (setting [3]) came to 100.0%. Further, in test [1] (setting [4]), the “FP assay %Inhibiton (37.5 µM)” value is 100.0%. For the same molecule, the “FP assay %Inhibiton (100 µM)” value in test [1] (setting [5]) is given as 100.0%.
Regarding `O=C(CCl)C1CCOCC1` [Z2491498268], the inhibition at 12.5 µM was 94.3% in test [2] (setting [6]) and 100% in test [1] (setting [3]). Further, the inhibition at 37.5 µM is 95.5% in test [2] (setting [7]) and 100% in test [1] (setting [4]). Further, the results for the inhibition at 100 µM in test [2] (setting [8]) and in test [1] (setting [5]) were 93.2% and 100%, respectively.
On to `O=C(CCl)c1ccc(F)c(Cl)c1` [Z2492395560], for which the inhibition at 12.5 µM in test [1] (setting [3]) was 20.7%. Further, the inhibition at 37.5 µM in test [1] (setting [4]) turned out to be 37.4%. Also, the inhibition at 100 µM in test [1] (setting [5]) stood at 88.1%.
Consider `O=C(NNS(=O)(=O)c1cccc(S(=O)(=O)F)c1)C1CCC1` [Z1764398070], for which, in test [2], the inhibition at 12.5 µM was 95.7%, the inhibition at 37.5 µM is 98% and the inhibition at 100 µM was 96.8%. In addition, in test [1], the inhibition at 12.5 µM was found to be 100%, the inhibition at 37.5 µM amounted to 100% and the inhibition at 100 µM is 100%.
Consider `CSC1(C(=O)Nc2cccc(S(=O)(=O)F)c2)CC1` [Z1832812427], for which the “DiFMuAc assay %Inhibiton (12.5 µM)” value in test [2] (setting [6]) worked out at 98.0%. For the same molecule, in test [2] (setting [7]), the “DiFMuAc assay %Inhibiton (37.5 µM)” value came out at 92.6%. Besides, the “DiFMuAc assay %Inhibiton (100 µM)” value in test [2] (setting [8]) was found to be 100.0%. Besides, the “FP assay %Inhibiton (12.5 µM)” value in test [1] (setting [3]) was found to be 98.3%. Moreover, the “FP assay %Inhibiton (37.5 µM)” value in test [1] (setting [4]) is on record as 100.0%. The “FP assay %Inhibiton (100 µM)” value in test [1] (setting [5]) is given as 100.0%.
As for `O=C(CCl)c1cscn1` [Z2491497305], the inhibition at 12.5 µM in test [1] (setting [3]) came out at 4.5%. In addition, the inhibition at 37.5 µM in test [1] (setting [4]) amounted to 7.6%. Moreover, the inhibition at 100 µM in test [1] (setting [5]) was found to be 51.6%.
As to `CC1CCc2ccccc2N1C(=O)CCl` (stereo not drawn) [Z220564178], the inhibition at 12.5 µM amounted to 80.5% in test [2] (setting [6]) and 100% in test [1] (setting [3]). For the same molecule, the inhibition at 37.5 µM in test [2] (setting [7]) is 79.6%; in test [1] (setting [4]), 100%. The inhibition at 100 µM in test [2] (setting [8]) was determined as 91.4%; in test [1] (setting [5]), 100%.
In the case of `O=C(NCCCS(=O)(=O)F)c1cccs1` [Z3267389796], the “FP assay %Inhibiton (12.5 µM)” value in test [1] (setting [3]) turned out to be 83.1%. Further, the “FP assay %Inhibiton (37.5 µM)” value in test [1] (setting [4]) turned out to be 80.1%. Moreover, the “FP assay %Inhibiton (100 µM)” value in test [1] (setting [5]) is recorded as 100.0%.
